Earlier results on one compound are cited in patent publication US10471178B2, “Implantable medical devices with increased immune tolerance, and methods for making and implanting” (AMPIO PHARMACEUTICALS, INC., priority 2011, dated 2019).

The data set deals with memory but not naive human T lymphocytes. The conditions noted are these: memory vs naive human T lymphocytes.

Structures are written as SMILES.

Consider `C[C@@H]1NC(=O)[C@H](CC(=O)O)NC1=O` [DA-DKP, Aspartate, Alanine-Diketopiperazine], for which the “immunomodulatory effect on human T lymphocytes” value is “immunomodulatory for memory but not naive human T lymphocytes”.
